According to ChEMBL document CHEMBL3046389, “Synthesis and biological evaluation of novel hydroquinone dimethyl ethers as potential anticancer and antimicrobial agents” (2013):
In brackets after ≈: the same amount, converted by molar mass.

Experiments:
Assay type in all cases: functional
M14 [1] = test: Anticancer activity against Homo sapiens (human) M14 cells after 48 hr by SRB assay; conditions: M14, 48 h
OVCAR-8 = test: Anticancer activity against Homo sapiens (human) OVCAR8 cells after 48 hr by SRB assay; conditions: OVCAR-8, 48 h
SNB-19 [2] = test: Growth inhibition of Homo sapiens (human) SNB19 cells at 10 uM after 48 hr by SRB assay; conditions: SNB-19, 48 h, read-out: GI
Hs-578T = test: Anticancer activity against Homo sapiens (human) Hs 578T cells after 48 hr by SRB assay
SK-MEL-2 = test: Anticancer activity against Homo sapiens (human) SK-MEL-2 cells after 48 hr by SRB assay; conditions: SK-MEL-2, 48 h
MDA-MB-468 [3] = test: Growth inhibition of Homo sapiens (human) MDA-MB-468 cells at 10 uM after 48 hr by SRB assay; conditions: MDA-MB-468, 48 h, read-out: GI
HCC 2998 = test: Anticancer activity against Homo sapiens (human) HCC2998 cells after 48 hr by SRB assay; conditions: HCC 2998, 48 h
SNB-75 = test: Growth inhibition of Homo sapiens (human) SNB75 cells at 10 uM after 48 hr by SRB assay; conditions: SNB-75, 48 h, read-out: GI
A498 = test: Anticancer activity against Homo sapiens (human) A498 cells after 48 hr by SRB assay; conditions: A498, 48 h
CCRF-CEM = test: Anticancer activity against Homo sapiens (human) CCRF-CEM cells after 48 hr by SRB assay
SNB-19 [4] = test: Anticancer activity against Homo sapiens (human) SNB19 cells after 48 hr by SRB assay; conditions: SNB-19, 48 h
K562 = test: Anticancer activity against Homo sapiens (human) K562 cells after 48 hr by SRB assay; conditions: K562, 48 h
UO-31 = test: Anticancer activity against Homo sapiens (human) UO31 cells after 48 hr by SRB assay; conditions: UO-31, 48 h
MDA-MB-231 = test: Anticancer activity against Homo sapiens (human) MDA-MB-231/ATCC cells after 48 hr by SRB assay; conditions: MDA-MB-231, 48 h
Pseudomonas aeruginosa = test: Antimicrobial activity against Pseudomonas aeruginosa ATCC 10145 after 48 hr by two-fold serial broth dilution method; conditions: ATCC 10145, 48 h
MDA-MB-435 = test: Anticancer activity against Homo sapiens (human) MDA-MB-435 cells after 48 hr by SRB assay; conditions: MDA-MB-435, 48 h
OVCAR-3 = test: Growth inhibition of Homo sapiens (human) OVCAR3 cells at 10 uM after 48 hr by SRB assay; conditions: OVCAR-3, 48 h, read-out: GI
M14 [5] = test: Growth inhibition of Homo sapiens (human) M14 cells at 10 uM after 48 hr by SRB assay; conditions: M14, 48 h, read-out: GI
HOP-62 = test: Anticancer activity against Homo sapiens (human) HOP62 cells after 48 hr by SRB assay; conditions: HOP-62, 48 h
PC-3 = test: Anticancer activity against Homo sapiens (human) PC3 cells after 48 hr by SRB assay; conditions: PC-3, 48 h
HCT-15 [6] = test: Anticancer activity against Homo sapiens (human) HCT15 cells after 48 hr by SRB assay; conditions: HCT-15, 48 h
UACC-62 = test: Anticancer activity against Homo sapiens (human) UACC62 cells after 48 hr by SRB assay; conditions: UACC-62, 48 h
A549 = test: Anticancer activity against Homo sapiens (human) A549/ATCC cells after 48 hr by SRB assay; conditions: A549, 48 h
NCI/ADR-RES = test: Anticancer activity against Homo sapiens (human) NCI/ADR-RES cells after 48 hr by SRB assay
MDA-MB-468 [7] = test: Anticancer activity against Homo sapiens (human) MDA-MB-468 cells after 48 hr by SRB assay; conditions: MDA-MB-468, 48 h
HCT-116 [8] = test: Growth inhibition of Homo sapiens (human) HCT116 cells at 10 uM after 48 hr by SRB assay; conditions: HCT-116, 48 h, read-out: GI
HCT-15 [9] = test: Growth inhibition of Homo sapiens (human) HCT15 cells at 10 uM after 48 hr by SRB assay; conditions: HCT-15, 48 h, read-out: GI
HCT-116 [10] = test: Anticancer activity against Homo sapiens (human) HCT116 cells after 48 hr by SRB assay; conditions: HCT-116, 48 h
SK-MEL-5 = test: Anticancer activity against Homo sapiens (human) SK-MEL-5 cells after 48 hr by SRB assay; conditions: SK-MEL-5, 48 h
[11] = read-out: LC50 (the source's name)

COc1ccc(OC)c(/C=C/c2nnc(S)n2-c2ccc(Cl)cc2)c1
GI50 (M14 [1]): 4.24 µM | LC50 (M14 [1]): > 100 µM | TGI (M14 [1]): > 100 µM | GI50 (OVCAR-8): 28.4 µM | LC50 (OVCAR-8): > 100 µM | TGI (OVCAR-8): > 100 µM | inhibition of growth at 10 µM (SNB-19 [2]): 48.8% | GI50 (Hs-578T): 3.1 µM | TGI (Hs-578T): > 100 µM | CC50 (Hs-578T; [11]): > 100 µM | GI50 (SK-MEL-2): 4.05 µM | TGI (SK-MEL-2): > 100 µM | CC50 (SK-MEL-2; [11]): > 100 µM | inhibition of growth at 10 µM (MDA-MB-468 [3]): 61.2% | GI50 (HCC 2998): 13.3 µM | TGI (HCC 2998): > 100 µM | CC50 (HCC 2998; [11]): > 100 µM | inhibition of growth at 10 µM (SNB-75): 57.5% | GI50 (A498): 6.66 µM | LC50 (A498): > 100 µM | TGI (A498): > 100 µM | GI50 (CCRF-CEM): 4.77 µM | TGI (CCRF-CEM): > 100 µM | CC50 (CCRF-CEM; [11]): > 100 µM | GI50 (SNB-19 [4]): 12.7 µM | TGI (SNB-19 [4]): > 100 µM | CC50 (SNB-19 [4]; [11]): > 100 µM | GI50 (K562): 4.95 µM | TGI (K562): > 100 µM | CC50 (K562; [11]): > 100 µM | GI50 (UO-31): 2.25 µM | LC50 (50% lethal concentration) (UO-31): > 100 µM | GI50 (MDA-MB-231): 14.5 µM | TGI (MDA-MB-231): > 100 µM | CC50 (MDA-MB-231; [11]): > 100 µM | MBC (Pseudomonas aeruginosa): 100 µg/mL (≈ 267 µM) | MIC (Pseudomonas aeruginosa): 50 µg/mL (≈ 134 µM) | GI50 (MDA-MB-435): 2.83 µM | TGI (MDA-MB-435): > 100 µM | CC50 (MDA-MB-435; [11]): > 100 µM | inhibition of growth at 10 µM (OVCAR-3): 70.6% | inhibition of growth at 10 µM (M14 [5]): 69% | GI50 (HOP-62): 6.48 µM | TGI (HOP-62): > 100 µM | CC50 (HOP-62; [11]): > 100 µM | GI50 (PC-3): 8.91 µM | TGI (PC-3): > 100 µM | CC50 (PC-3; [11]): > 100 µM | GI50 (HCT-15 [6]): 4.39 µM | TGI (HCT-15 [6]): > 100 µM | CC50 (HCT-15 [6]; [11]): > 100 µM | GI50 (UACC-62): 3.11 µM | LC50 (UACC-62): > 100 µM | TGI (UACC-62): > 100 µM | GI50 (A549): 9.07 µM | TGI (A549): > 100 µM | CC50 (A549; [11]): > 100 µM | GI50 (NCI/ADR-RES): 3.63 µM | LC50 (NCI/ADR-RES): > 100 µM | TGI (NCI/ADR-RES): > 100 µM | GI50 (MDA-MB-468 [7]): 3.51 µM | TGI (MDA-MB-468 [7]): 55.4 µM | CC50 (MDA-MB-468 [7]; [11]): > 100 µM | inhibition of growth at 10 µM (HCT-116 [8]): 70.4% | inhibition of growth at 10 µM (HCT-15 [9]): 58.8% | GI50 (HCT-116 [10]): 4.05 µM | TGI (HCT-116 [10]): > 100 µM | CC50 (HCT-116 [10]; [11]): > 100 µM | GI50 (SK-MEL-5): 3.58 µM | LC50 (SK-MEL-5): > 100 µM | TGI (SK-MEL-5): > 100 µM
